B1: heat-inactivated (HI) MMP-2: MMP-2 enzyme inactivated by heating to 56° C. for 45 min (protein)
chain: YNFFPRKPKWDKNQITYRIIGYTPDLDPETVDDAFARAFQVWSDVTPLRFSRIHDGEADIMINFGRWEHGDGYPFDGKDGLLAHAFAPGTGVGGDSHFDDDELWTLGEGQVVRVKYGNADGEYCKFPFLFNGKEYNSCTDTGRSDGFLWCSTTYNFEKDGKYGFCPHEALFTMGGNAEGQPCKFPFRFQGTSYDSCTTEGRTDGYRWCGTTEDYDRDKKYGFCPETAMSTVGGNSEGAPCVFPFTFLGNKYESCTSAGRSDGKMWCATTANYDDDRKWGFCPDQGYSLFLVAAHEFGHAMGLEHSQDPGALMAPIYTYTKNFRLSQDDIKGIQELYGASPDIDLGTGPTPTLGPVTPEICKQDIVFDGIAQIRGEIFFFKDRFIWRTVTPRDKPMGPLLVATFWPELPEKIDAVYEAPQEEKAVFFAGNEYWIYSASTLERGYPKPLTSLGLPPDVQRVDAAFNWSKNKKTYIFAGDKFWRYNEVKKKMDPGFPKLIADAWNAIPDNLDAVVDLQGGGHSYFFKGAYYLKLENQSLKSVKFGSIKSDWLGC

Key:
[1] = tested on: MMP-2-specific CD4^+ T cells; assay: Screen of overlapping MMP-2 peptides for recognition by CD4+ T cell clones; format: cell-based, human; conditions: 20-mer peptides of MMP-2
From the text: By way of background, the present inventors used a pool of sixty-six 20-amino acid long, partially overlapping peptides spanning the entire sequence of MMP-2 (SEQ ID NO: 1) to screen for the presence of MMP-2-specific CD4^+ T cells and identify the specific MMP-2 epitopes for which these clones were specific. See, for example, FIG. 6. Using this method, CD4^+ T cell clones specific for eleven distinct and novel MMP-2-derived peptides/epitopes were generated. An empirical approach to determining which, if any, of the potential MMP-2 peptides could induce MMP-2-specific CD4^+ T cells was necessitated because of the nature and complexity of antigen processing and presentation by antigen presenting cells [APCs; e.g., monocyte-derived dendritic cells (DCs)] and the additional complexities involved in T cell recognition of presented antigen, which are influenced by, for example, the presence and/or concentration of particular cytokines that are instructive for divergent T cell differentiation pathways.
Peripheral blood mononuclear cells (PBMCs) can be purified from healthy donor- (HD) or cord blood donor- (CB) derived buffy coats (New York Blood Center) by Ficoll-Paque Plus (GE Healthcare) centrifugation. CD4^+/CD25^− cells were enriched (>90%) by magnetic cell sorting (Miltenyi Biotec) and primed/stimulated for 12-15 days either with irradiated (35Gy) autologous CD4^− cells or with autologous mature DCs in IMDM (GIBCO) supplemented with 1 mM HEPES (Life Technologies), 2 mM L-glutamine (Sigma), […] (Sigma) and 5% heat inactivated pooled human serum (PHS; Valley Biomedical) in the presence of rhIL-2 (10 UI/mL) and IL7 (5 ng/mL) (R&D Systems). Antigen presenting cells (CD4^− cells or DCs) were loaded either with peptides […] or with the MMP-2 protein (10 μg/mL) for 2 and 5 h, respectively. To generate T cell clones, we originally relied on our published methodology (Godefroy et al., 2006; Godefroy et al., 2007; the entire content of each of which is incorporated herein by reference), involving enrichment of IFNγ-secreting cells upon short-term culture and peptide stimulation to generate MMP-2 responsive clones. Briefly, CD4^+ T cells were stimulated by CD4^− cells irradiated and pulsed with peptides for 12 days in the presence of rhIL-2 and rhIL-7. CD4^+ T cells were then restimulated with peptides for 3 hours before capturing IFNγ-secreting specific cells using a bispecific antibody coating T cells and capturing produced IFNγ. Positive cells were purified magnetically before being cloned. Although MMP-2-specific cells could be isolated, it was realized that IFNγ secretion was marginal compared to their secretion of IL-4 and TNFα. IFNγ-secreting cells in response to MMP-2 peptide pool were enriched by cytokine-guided magnetic cell sorting (Miltenyi Biotec) as described above and cloned the following day by limiting dilution in the presence of irradiated allogeneic PBMCs, 1 μg/mL phytohemagglutinin-L (Sigma) and 150 UI/mL rhIL-2. Tumor infiltrating lymphocytes (TILs) were provided by Pr. F. Jotereau and B. Dréno. They were obtained from tumor-invaded lymph nodes of melanoma patients (stage IIIb) and expanded ex vivo. These patients received autologous TILs and IL-2 infusions in a clinical trial (Labarriere et al., 2002). This protocol was approved by the Institutional Ethics Committee and registered with regulatory state authority in France (Nantes).
T-bet and GATA-3 expression was measured on resting T cells. Cells were fixed (4% paraformaldehyde for 10 min at RT), permeabilized with 0.1% saponin, and stained for intracellular transcription factors. Cytokine production by T cells was also assessed by intracellular staining. T cells were stimulated with 2 μM overlapping peptides. After 1 h, 10 μg/mL brefeldin A was added to the cells. […]

OX40L = OX40L expression on DCs (staining); format: cell-based, human; conditions: for OX40L expression on DCs: DCs exposed for 2 days, stained for OX40L
Procedure: (§1) A) DCs were exposed to MMP-2 […] or zymosan […], a known activator of NF-κB that acts via TLR2, for the indicated time. Cytosolic and nuclear fractions were isolated and p50 contents were measured by ELISA. […] C) OX40L over-expression on DCs induced by MMP-2 is inhibited by an inhibitor of NEMO, the NEMO binding domain (NBD) peptide, but not by the corresponding negative control, a NBD mutant.
A) DCs were exposed to various TLR agonists for 2 days before cells were stained for OX40L. […] B) TLR2-transfected and engineered HEK cells were incubated with MMP-2 (5 mg/ml) or various controls. All conditions were also tested in the presence of a blocking antibody for TLR2. TNFα was used to activate NF-κB in a TLR-independent manner. Twenty hours later, NF-κB activation was measured.
Antibody to OX40L (11C3.1) was from Biolegend. Blocking antibodies to TLR-2 and TLR-6 were from Invivogen. Antibodies to GATA-3, IL-4 (8D4-8), IL-5 (JES1-39D10), IL-13 (JES10-5A2), TNFα (MAb11), IFNγ (25723.11), perforin (δG9), GranzymeB (GB11), CD40 (5C3), CD80 (L307.4), CD83 (HB15e), CD86 (IT2.2), HLA-DR (TU36), fluorescein isothiocyanate-conjugated antibodies to CD45RA (HI100) and CD45RO (UCHL1), and antibody to CD4 (RPA-T4) were purchased from BD Biosciences Pharmingen. Alexa fluor 488-conjugated antibody to IL-17 (eBio64DEC17), phycoerythrine-conjugated antibody to T-bet (4B10).
(§2) PBMCs were purified from healthy-(HD) or cord blood- (CB) donors and plated at 40×10^6 cells/10 mL/dish in complete IMDM with 5% PHS. Cells were allowed to adhere for 2 h at 37° C. Non-adherent cells were removed. The monocyte-enriched fraction was supplemented with 100 UI/mL rhGMCSF and 300 UI/mL rhIL-4 (R&D Systems) on days 0, 2 and 4. Immature DCs were harvested on day 5 and matured using poly(I:C) at 5 μg/mL/10^6 DCs (Amersham). Secretion of IL-12p70, TNFα, IL-1β, IL-6, IL-8 and IL-10 was assessed on both immature and mature DCs using the Human Inflammatory Cytokine Cytometric Bead Array (BD Pharmingen).

bone-marrow-derived DCs = assay: Activation of bone-marrow-derived DCs from wild-type and TLR-deficient mice; format: cell-based, C57/BL6 mice
Procedure: Bone-marrow-derived DCs from wild-type, TLR2^−/−, TLR6^−/− or MyD88^−/− C57/BL6 mice (3 mice pooled/condition) were incubated overnight with 5 μg/ml mMMP-2 or mMMP-9 as well as TLR agonists for controls. TNFα (A) and IL-6 (B) were measured by cytometric bead array analysis. Results are represented as a mean of triplicates±s.d. Two-tailed Student's t-tests were used for specific pairwise comparisons between conditions. p values≦0.05 (*) were considered statistically significant. C) Murine OX40L expression was assessed 2 days later by immunostaining.
Bone-marrow-derived DCs (BM-DCs) were generated and cultured with murine MMP-2 or various controls. […] On the other hand, TLR2^−/− and MyD88^−/− BM-DCs were not activated by MMP-2 (n=3; p<0.02 compared to wild-type mice) (FIG. 9A-C). […] Therefore, MMP-2 induces DCs to produce inflammatory cytokines and to up-regulate OX40L in a TLR2/MyD88-dependent manner.

NF-κB pathway = assay: p50 nuclear translocation / NF-κB activation in DCs (ELISA of cytosolic and nuclear fractions); format: cell-based, human
Procedure: as §1, §2
Activation of T cell clones (10,000 cells/100 μL/well), polyclonal T cell populations (100,000 cells/100 μL/well), and DCs (50,000 cells/100 μL/well) can be determined by ELISA. IFNγ (BioSource), TNFα (BioSource), IL-4 (BioSource), IFNβ (VeriKine; PBL interferon source) and MCP-3 (DuoSet; R&D Systems) contents in supernatants were measured according to the manufacturer's instructions. p50 was measured in cytosolic and nuclear fractions (fractions separated using the nuclear separation kit from Active motif) by ELISA (Active motif).

Molecule	recognition as epitope by CD4+ T cell clones [1]	also measured
AFNWSKNKKTYIFAGDKFWR (listed as Homo sapiens) [P571-590]	recognized by CD4^+ T cell clones	
ESCTSAGRSDGKMWCATTAN (listed as Homo sapiens) [P361-380]	recognized by CD4^+ T cell clones	
FFKGAYYLKLENQSLKSVKF (listed as Homo sapiens) [P631-650]	recognized by CD4^+ T cell clones	
GCLLSHAAAAPSPIIKFPGD (listed as Homo sapiens) [P21-40]	recognized by CD4^+ T cell clones	
GFPKLIADAWNAIPDNLDAV (listed as Homo sapiens) [P601-620]	recognized by CD4^+ T cell clones	
GYPKPLTSLGLPPDVQRVDA (listed as Homo sapiens) [P551-570]	recognized by CD4^+ T cell clones	
MALP-2		OX40L expression on DCs (OX40L): induce OX40L on DCs
MEALMARGALTGPLRALCLL (listed as Homo sapiens) [P1-20]	recognized by CD4^+ T cell clones	
NEMO binding domain (NBD) peptide		inhibition of OX40L over-expression on DCs induced by MMP-2 (OX40L; DCs, MMP-2-induced): inhibited
Pam3CSK4		OX40L over-expression on TLR-2-transfected HEK cells or DCs (OX40L; TLR-2/TLR-1 agonist): did not induce OX40L over-expression
RIHDGEADIMINFGRWEHGD (listed as Homo sapiens) [P161-180]	recognized by CD4^+ T cell clones	
TGPLRALCLLGCLLSHAAAA (listed as Homo sapiens) [P11-30]	recognized by CD4^+ T cell clones	
VAPKTDKELAVQYLNTFYGC (listed as Homo sapiens) [P41-60]	recognized by CD4^+ T cell clones	
VDLQGGGHSYFFKGAYYLKL (listed as Homo sapiens) [P621-640]	recognized by CD4^+ T cell clones	
murine MMP-2: murine MMP-2 protein, active or inactive		activation of bone-marrow-derived DCs (bone-marrow-derived DCs; FIG. 9 summary): activates bone-marrow-derived DCs in a TLR2- and MyD88-dependent manner; activation of TLR2−/− and MyD88−/− BM-DCs (bone-marrow-derived DCs; TLR2−/− and MyD88−/− BM-DCs, n=3): not activated; inflammatory cytokine secretion (TNFα, IL-6) by BM-DCs (bone-marrow-derived DCs; wild-type and TLR6−/− BM-DCs, 5 μg/ml overnight, active or inactive): secreted inflammatory cytokines; OX40L up-regulation on BM-DCs (bone-marrow-derived DCs; wild-type and TLR6−/− BM-DCs, 2 days): up-regulated OX40L
B1		OX40L expression on DCs (OX40L): induce OX40L expression; p50 translocation in the nucleus (NF-κB pathway; DCs exposed to MMP-2 (5 μm/ml) or zymosan (10 μm/ml), p50 by ELISA): trigger p50 translocation in the nucleus; NF-κB activation in DCs (NF-κB pathway; active vs heat-inactivated MMP-2): NF-κB activation (FIGS. 2A, 2B and 3) at similar levels
